We go through 1 compound from patent publication US20120219496A1, “GADOLINIUM-LINKED NANOCLUSTERS” (priority 2009, published 2012).

This data set in a line: R1 relaxivity determination (T1 relaxometry, slope of 1/T1 vs. Gd concentration). In kind it is physicochemical. The following applies: 1.41 T (60 MHz), 40° C. On the procedure: Instrumentation. Dynamic light scattering (DLS) measurements were performed on a Zetasizer Nano from Malvern Instruments. The scattering angle was held constant at 90°. Microscopy measurements were performed on an Olympus IX 81 motorized inverted fluorescence microscope equipped with an Andor DU897 EMCCD, an X-Cite 120 excitation source (EXFO) and Sutter excitation and emission filter wheels. Image of FITC was acquired using the filter set HQ480/40, HQ535/50, Q505LP. Filter set was purchased from Chroma. Tl-relaxation times were determined using a Bruker mq60 MR relaxometer operating at 1.41 T (60 MHz). ICP-AES was performed by VHG Laboratories (Manchester, N.H.). Transmission electron microscopy (TEM) was performed with a JEOL 2010 electron microscope operated at 80 kV.
To assess the paramagnetic properties of the Gd-conjugated DNCs, the amount of Gd within the sample was determined by inductively coupled plasma atomic emission spectroscopy (ICP-AES). Tl-relaxation times were determined using a Bruker mq60 MR relaxometer operating at 1.41 T (60 MHz) and at 40° C. […] It is likely that only a marginal increase in R1 was observed, despite the larger size of DNCs, due to the “saturation” of ion relaxivity, which has also previously been reported for high generation dendrimers. As a point of comparison, Gd-DTPA was determined to have an R1 of 3.9 mM^−1 s^−1 per Gd.

For `O=C([O-])CN(CCN(CC(=O)[O-])CC(=O)O)CCN(CC(=O)[O-])CC(=O)O.[Gd+3]` [Gd-DTPA], the “R1 relaxivity per Gd” value stood at 3.9 mM⁻¹ s⁻¹.
